Assay results published in ChEMBL document CHEMBL1909046, “DrugMatrix in vitro pharmacology data”.

Key:
[1] = DRUGMATRIX: Calcium Channel Type L, Dihydropyridine radioligand binding (ligand: [3H] Nitrendipine); type: cell membranes, Rattus norvegicus, Wistar, Cerebral cortex, Membrane; details: Not Active = under 50% inhibition at 10 µM
Substance-K receptor = target: T1, Substance-K receptor (Homo sapiens, UniProt P21452); type: cell membranes, CHO, Membrane; details: cho; further: in other assays of this panel Not Active means under 50% inhibition at 10 µM
T1 sequence (P21452 whole entry): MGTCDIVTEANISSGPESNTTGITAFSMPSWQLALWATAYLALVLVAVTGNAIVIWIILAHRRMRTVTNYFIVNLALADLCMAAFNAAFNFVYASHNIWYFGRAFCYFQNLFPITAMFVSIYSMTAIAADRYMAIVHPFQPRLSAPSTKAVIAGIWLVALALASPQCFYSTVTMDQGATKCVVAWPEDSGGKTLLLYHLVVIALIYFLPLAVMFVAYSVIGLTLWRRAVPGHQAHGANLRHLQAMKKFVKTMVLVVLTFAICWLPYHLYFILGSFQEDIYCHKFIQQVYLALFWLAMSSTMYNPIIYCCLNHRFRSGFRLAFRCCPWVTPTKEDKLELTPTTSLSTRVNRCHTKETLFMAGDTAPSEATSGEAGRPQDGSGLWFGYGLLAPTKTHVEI

Thromboxane-A synthase = target: T2, Thromboxane-A synthase (Homo sapiens, UniProt P24557); assay: biochemical; type: tissue-based, Platelet; details: platelet;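 further: enzyme inhibition assay with PGH2 supplied as substrate; in other assays of this panel Not Active means under 50% inhibition at 10 µM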
T2 sequence (P24557 whole entry): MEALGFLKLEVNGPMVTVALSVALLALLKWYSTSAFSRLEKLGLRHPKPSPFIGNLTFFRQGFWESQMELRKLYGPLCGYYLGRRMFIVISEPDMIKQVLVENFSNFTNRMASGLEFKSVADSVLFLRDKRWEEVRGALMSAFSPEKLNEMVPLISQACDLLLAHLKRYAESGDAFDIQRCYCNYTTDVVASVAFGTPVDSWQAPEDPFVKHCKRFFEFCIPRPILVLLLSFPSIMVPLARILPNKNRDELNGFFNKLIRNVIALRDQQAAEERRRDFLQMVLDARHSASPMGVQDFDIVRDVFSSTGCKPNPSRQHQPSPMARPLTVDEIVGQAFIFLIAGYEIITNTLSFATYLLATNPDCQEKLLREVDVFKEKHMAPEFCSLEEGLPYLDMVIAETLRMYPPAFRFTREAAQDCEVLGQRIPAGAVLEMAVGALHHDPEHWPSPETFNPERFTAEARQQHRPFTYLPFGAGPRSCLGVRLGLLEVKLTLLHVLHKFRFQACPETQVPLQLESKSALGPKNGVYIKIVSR

[2] = target: T3, Cholecystokinin receptor type A (Homo sapiens, UniProt P32238); type: cell membranes, Membrane; details: 1321-n1; further: in other assays of this panel Not Active means under 50% inhibition at 10 µM
T3 sequence (P32238 whole entry): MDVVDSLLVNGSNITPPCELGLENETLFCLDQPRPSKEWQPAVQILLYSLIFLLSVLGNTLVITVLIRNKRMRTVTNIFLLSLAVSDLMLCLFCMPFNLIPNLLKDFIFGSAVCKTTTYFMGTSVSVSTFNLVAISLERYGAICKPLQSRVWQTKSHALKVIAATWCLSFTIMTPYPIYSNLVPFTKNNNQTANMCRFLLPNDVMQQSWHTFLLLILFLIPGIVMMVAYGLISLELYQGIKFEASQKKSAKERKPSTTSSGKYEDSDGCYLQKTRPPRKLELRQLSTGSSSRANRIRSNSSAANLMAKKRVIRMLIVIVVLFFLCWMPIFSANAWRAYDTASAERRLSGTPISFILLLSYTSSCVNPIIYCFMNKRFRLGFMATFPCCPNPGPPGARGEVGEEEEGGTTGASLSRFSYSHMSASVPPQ

D(1A) dopamine receptor = D(1A) dopamine receptor (Homo sapiens, UniProt P21728); assay: DRUGMATRIX: Dopamine D1 radioligand binding (ligand: [3H] SCH-23390); type: cell membranes, Membrane; details: cho; Not Active = under 50% inhibition at 10 µM
Chain of D(1A) dopamine receptor (P21728 whole entry): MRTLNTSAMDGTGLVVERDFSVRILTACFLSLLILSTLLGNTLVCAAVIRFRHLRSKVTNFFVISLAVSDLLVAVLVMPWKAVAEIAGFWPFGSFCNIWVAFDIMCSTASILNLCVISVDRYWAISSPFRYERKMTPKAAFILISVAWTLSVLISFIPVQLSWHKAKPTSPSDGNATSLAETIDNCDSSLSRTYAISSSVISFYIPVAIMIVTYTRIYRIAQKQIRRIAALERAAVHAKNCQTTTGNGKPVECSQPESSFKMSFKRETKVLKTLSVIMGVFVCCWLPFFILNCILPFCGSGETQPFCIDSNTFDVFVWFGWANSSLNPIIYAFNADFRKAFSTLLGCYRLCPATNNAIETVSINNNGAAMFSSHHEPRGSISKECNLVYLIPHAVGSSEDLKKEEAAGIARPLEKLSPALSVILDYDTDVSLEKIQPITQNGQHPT

[3] = DRUGMATRIX: GABAA, Muscimol, Central radioligand binding (ligand: [3H] Muscimol); type: cell membranes, Rattus norvegicus, Wistar, Brain, Membrane; details: Not Active = under 50% inhibition at 10 µM
[4] = DRUGMATRIX: Platelet-Derived Growth Factor (PDGF) radioligand binding (ligand: [125I] PDGF); type: cell-based; details: nih3t3; Not Active = under 50% inhibition at 10 µM
Progesterone receptor = target: T4, Progesterone receptor (Bos taurus, UniProt Q690N0); assay: DRUGMATRIX: Progesterone radioligand binding (ligand: [3H] R-5020); type: tissue-based, Uterus; details: Not Active = under 50% inhibition at 10 µM
T4 sequence (Q690N0 whole entry): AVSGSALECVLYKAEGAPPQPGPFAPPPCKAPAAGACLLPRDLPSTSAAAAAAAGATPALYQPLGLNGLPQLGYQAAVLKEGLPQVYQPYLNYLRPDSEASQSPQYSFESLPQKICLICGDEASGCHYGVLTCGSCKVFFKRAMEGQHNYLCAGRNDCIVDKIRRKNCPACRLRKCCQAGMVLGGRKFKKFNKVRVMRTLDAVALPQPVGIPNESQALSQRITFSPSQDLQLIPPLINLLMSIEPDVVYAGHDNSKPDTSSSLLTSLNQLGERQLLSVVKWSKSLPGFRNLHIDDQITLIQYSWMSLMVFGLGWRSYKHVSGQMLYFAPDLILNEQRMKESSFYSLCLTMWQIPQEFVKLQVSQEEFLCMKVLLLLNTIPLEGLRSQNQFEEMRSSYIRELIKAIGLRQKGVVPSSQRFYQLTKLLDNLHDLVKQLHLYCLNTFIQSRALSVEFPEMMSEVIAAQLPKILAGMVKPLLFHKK

[5] = target: Tyrosine-protein kinase Lck (Homo sapiens, UniProt P06239); assay: DRUGMATRIX: Protein Tyrosine Kinase, LCK enzyme inhibition (substrate: Poly(Glu:Tyr)); type: cell-based, Insect cells; details: insect cells; Not Active = under 50% inhibition at 10 µM
Chain of Tyrosine-protein kinase Lck (P06239 whole entry): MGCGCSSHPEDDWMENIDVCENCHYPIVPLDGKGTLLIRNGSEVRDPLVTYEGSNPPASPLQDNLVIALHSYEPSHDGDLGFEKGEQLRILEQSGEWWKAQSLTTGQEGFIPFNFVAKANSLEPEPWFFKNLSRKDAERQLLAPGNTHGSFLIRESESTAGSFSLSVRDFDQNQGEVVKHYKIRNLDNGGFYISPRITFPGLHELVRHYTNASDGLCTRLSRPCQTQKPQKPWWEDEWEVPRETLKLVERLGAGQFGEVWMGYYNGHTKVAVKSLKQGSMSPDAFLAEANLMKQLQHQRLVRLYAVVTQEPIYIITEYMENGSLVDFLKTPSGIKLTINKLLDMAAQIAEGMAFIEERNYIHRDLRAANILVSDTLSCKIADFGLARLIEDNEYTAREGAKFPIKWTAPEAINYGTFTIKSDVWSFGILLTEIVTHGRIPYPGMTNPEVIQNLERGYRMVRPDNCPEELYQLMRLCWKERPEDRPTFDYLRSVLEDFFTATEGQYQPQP

Cytochrome P450 1A2 = target: T5, Cytochrome P450 1A2 (Homo sapiens, UniProt P05177); details: bti-tn-5b1-4; further: in other assays of this panel Not Active means under 50% inhibition at 10 µM
T5 sequence (P05177 whole entry): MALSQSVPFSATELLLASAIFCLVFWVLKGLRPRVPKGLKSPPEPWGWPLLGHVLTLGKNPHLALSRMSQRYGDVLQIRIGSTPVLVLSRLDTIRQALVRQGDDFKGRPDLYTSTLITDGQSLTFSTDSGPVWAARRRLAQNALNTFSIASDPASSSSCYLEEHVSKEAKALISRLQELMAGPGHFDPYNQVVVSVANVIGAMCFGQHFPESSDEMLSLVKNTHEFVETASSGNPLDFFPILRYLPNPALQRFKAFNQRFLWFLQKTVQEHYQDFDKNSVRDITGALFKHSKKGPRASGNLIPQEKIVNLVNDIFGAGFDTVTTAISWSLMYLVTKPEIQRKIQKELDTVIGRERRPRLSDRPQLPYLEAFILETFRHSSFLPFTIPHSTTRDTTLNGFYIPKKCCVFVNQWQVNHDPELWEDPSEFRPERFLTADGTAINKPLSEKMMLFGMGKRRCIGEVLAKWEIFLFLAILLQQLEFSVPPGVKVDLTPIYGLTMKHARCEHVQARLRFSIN

COCCCOc1ccnc(C[S+]([O-])c2nc3ccccc3[nH]2)c1C (stereo not drawn) [RABEPRAZOLE]
Not Active: IC50 [1] | Ki [1] | IC50 (Substance-K receptor) | IC50 (Thromboxane-A synthase) | IC50 [2] | IC50 (D(1A) dopamine receptor) | IC50 [3] | Ki [3] | IC50 [4] | Ki [4] | IC50 (Progesterone receptor) | IC50 [5] | IC50 (Cytochrome P450 1A2) | Ki (Cytochrome P450 1A2)

CNC(=C[N+](=O)[O-])NCCSCc1ccc(CN(C)C)o1 [RANITIDINE]
Not Active: IC50 [1] | Ki [1] | IC50 (Substance-K receptor) | IC50 (Thromboxane-A synthase) | IC50 [2] | IC50 (D(1A) dopamine receptor) | IC50 [3] | Ki [3] | IC50 [4] | Ki [4] | IC50 (Progesterone receptor) | IC50 [5] | IC50 (Cytochrome P450 1A2) | Ki (Cytochrome P450 1A2)

CO[C@H]1/C=C/O[C@@]2(C)Oc3c(C)c(O)c4c(c3C2=O)C2=NC3(CCN(CC(C)C)CC3)NC2=C(NC(=O)/C(C)=C\C=C\[C@H](C)[C@H](O)[C@@H](C)[C@@H](O)[C@@H](C)[C@H](OC(C)=O)[C@@H]1C)C4=O [RIFABUTIN]
Not Active: IC50 [1] | Ki [1] | IC50 (Substance-K receptor) | IC50 (Thromboxane-A synthase) | IC50 [2] | IC50 (D(1A) dopamine receptor) | IC50 [3] | Ki [3] | IC50 [4] | Ki [4] | IC50 (Progesterone receptor) | IC50 [5] | IC50 (Cytochrome P450 1A2) | Ki (Cytochrome P450 1A2)

CC(C)CC(N(C)C)C1(c2ccc(Cl)cc2)CCC1 (stereo not drawn) [SIBUTRAMINE]
Not Active: IC50 [1] | Ki [1] | IC50 (Substance-K receptor) | IC50 (Thromboxane-A synthase) | IC50 [2] | IC50 (D(1A) dopamine receptor) | IC50 [3] | Ki [3] | IC50 [4] | Ki [4] | IC50 (Progesterone receptor) | IC50 [5] | IC50 (Cytochrome P450 1A2) | Ki (Cytochrome P450 1A2)

[H]/N=C(/N)N[C@H]1[C@H](O)[C@@H](O)[C@H](O[C@@H]2O[C@@H](C)[C@](O)(C=O)[C@H]2O[C@@H]2O[C@@H](CO)[C@H](O)[C@@H](O)[C@@H]2NC)[C@@H](N/C(N)=N\[H])[C@@H]1O [STREPTOMYCIN]
Not Active: IC50 [1] | Ki [1] | IC50 (Substance-K receptor) | IC50 (Thromboxane-A synthase) | IC50 [2] | IC50 (D(1A) dopamine receptor) | IC50 [3] | Ki [3] | IC50 [4] | Ki [4] | IC50 (Progesterone receptor) | IC50 [5] | IC50 (Cytochrome P450 1A2) | Ki (Cytochrome P450 1A2)

COc1cc(NS(=O)(=O)c2ccc(N)cc2)nc(OC)n1 [SULFADIMETHOXINE]
Not Active: IC50 [1] | Ki [1] | IC50 (Substance-K receptor) | IC50 (Thromboxane-A synthase) | IC50 [2] | IC50 (D(1A) dopamine receptor) | IC50 [3] | Ki [3] | IC50 [4] | Ki [4] | IC50 (Progesterone receptor) | IC50 [5] | IC50 (Cytochrome P450 1A2) | Ki (Cytochrome P450 1A2)

Cc1cc(C)nc(NS(=O)(=O)c2ccc(N)cc2)n1 [SULFAMETHAZINE]
Not Active: IC50 [1] | Ki [1] | IC50 (Substance-K receptor) | IC50 (Thromboxane-A synthase) | IC50 [2] | IC50 (D(1A) dopamine receptor) | IC50 [3] | Ki [3] | IC50 [4] | Ki [4] | IC50 (Progesterone receptor) | IC50 [5] | IC50 (Cytochrome P450 1A2) | Ki (Cytochrome P450 1A2)

C[C@]1(Cn2ccnn2)[C@H](C(=O)O)N2C(=O)C[C@H]2S1(=O)=O [TAZOBACTAM]
Not Active: IC50 [1] | Ki [1] | IC50 (Substance-K receptor) | IC50 (Thromboxane-A synthase) | IC50 [2] | IC50 (D(1A) dopamine receptor) | IC50 [3] | Ki [3] | IC50 [4] | Ki [4] | IC50 (Progesterone receptor) | IC50 [5] | IC50 (Cytochrome P450 1A2) | Ki (Cytochrome P450 1A2)

CN1C(C(=O)Nc2ccccn2)=C(O)c2sccc2S1(=O)=O [TENOXICAM]
Not Active: IC50 [1] | Ki [1] | IC50 (Substance-K receptor) | IC50 (Thromboxane-A synthase) | IC50 [2] | IC50 (D(1A) dopamine receptor) | IC50 [3] | Ki [3] | IC50 [4] | Ki [4] | IC50 (Progesterone receptor) | IC50 [5] | IC50 (Cytochrome P450 1A2) | Ki (Cytochrome P450 1A2)

O=C1CCC(N2C(=O)c3ccccc3C2=O)C(=O)N1 (stereo not drawn) [THALIDOMIDE]
Not Active: IC50 [1] | Ki [1] | IC50 (Substance-K receptor) | IC50 (Thromboxane-A synthase) | IC50 [2] | IC50 (D(1A) dopamine receptor) | IC50 [3] | Ki [3] | IC50 [4] | Ki [4] | IC50 (Progesterone receptor) | IC50 [5] | IC50 (Cytochrome P450 1A2) | Ki (Cytochrome P450 1A2)

Cc1cccc(Nc2ccncc2S(=O)(=O)NC(=O)NC(C)C)c1 [TORSEMIDE]
Not Active: IC50 [1] | Ki [1] | IC50 (Substance-K receptor) | IC50 (Thromboxane-A synthase) | IC50 [2] | IC50 (D(1A) dopamine receptor) | IC50 [3] | Ki [3] | IC50 [4] | Ki [4] | IC50 (Progesterone receptor) | IC50 [5] | IC50 (Cytochrome P450 1A2) | Ki (Cytochrome P450 1A2)

CC(C)C[C@H](NC(=O)[C@@H](O)[C@H](N)Cc1ccccc1)C(=O)O [UBENIMEX]
Not Active: IC50 [1] | Ki [1] | IC50 (Substance-K receptor) | IC50 (Thromboxane-A synthase) | IC50 [2] | IC50 (D(1A) dopamine receptor) | IC50 [3] | Ki [3] | IC50 [4] | Ki [4] | IC50 (Progesterone receptor) | IC50 [5] | IC50 (Cytochrome P450 1A2) | Ki (Cytochrome P450 1A2)
